According to patent US8673586B2, “Compounds that interact with kinases” (Alchemia Limited, priority 2002, dated 2014):
Where two headings read alike, the source gives them in different places.

Legend:
[1] = molecular target: MSK-1 (Homo sapiens, UniProt O75582); details: cited from earlier work
[2] = molecular target: S6K1 (Homo sapiens, UniProt P23443); details: cited from earlier work
[3] = molecular target: PRK2 (Homo sapiens, UniProt Q16513); details: inhibitor concentration 20 μM; cited from earlier work
[4] = molecular target: CDK2 (Homo sapiens, UniProt P24941); details: inhibitor concentration 10 μM; cited from earlier work
[5] = tested on: CK1; details: inhibitor concentration 10 μM; cited from earlier work
[6] = molecular target: SAPK2a (Homo sapiens, UniProt Q16539); details: inhibitor concentration 10 μM; cited from earlier work
[7] = molecular target: MKK1 (Homo sapiens, UniProt Q02750); details: inhibitor concentration 10 μM; cited from earlier work
[8] = molecular target: T1, KIT (Homo sapiens, UniProt P10721); experiment: KIT kinase assay, 33P-ATP incorporation, residual activity; format: biochemical
T1 construct: made in house
T1 sequence (P10721 26-976, species assumed): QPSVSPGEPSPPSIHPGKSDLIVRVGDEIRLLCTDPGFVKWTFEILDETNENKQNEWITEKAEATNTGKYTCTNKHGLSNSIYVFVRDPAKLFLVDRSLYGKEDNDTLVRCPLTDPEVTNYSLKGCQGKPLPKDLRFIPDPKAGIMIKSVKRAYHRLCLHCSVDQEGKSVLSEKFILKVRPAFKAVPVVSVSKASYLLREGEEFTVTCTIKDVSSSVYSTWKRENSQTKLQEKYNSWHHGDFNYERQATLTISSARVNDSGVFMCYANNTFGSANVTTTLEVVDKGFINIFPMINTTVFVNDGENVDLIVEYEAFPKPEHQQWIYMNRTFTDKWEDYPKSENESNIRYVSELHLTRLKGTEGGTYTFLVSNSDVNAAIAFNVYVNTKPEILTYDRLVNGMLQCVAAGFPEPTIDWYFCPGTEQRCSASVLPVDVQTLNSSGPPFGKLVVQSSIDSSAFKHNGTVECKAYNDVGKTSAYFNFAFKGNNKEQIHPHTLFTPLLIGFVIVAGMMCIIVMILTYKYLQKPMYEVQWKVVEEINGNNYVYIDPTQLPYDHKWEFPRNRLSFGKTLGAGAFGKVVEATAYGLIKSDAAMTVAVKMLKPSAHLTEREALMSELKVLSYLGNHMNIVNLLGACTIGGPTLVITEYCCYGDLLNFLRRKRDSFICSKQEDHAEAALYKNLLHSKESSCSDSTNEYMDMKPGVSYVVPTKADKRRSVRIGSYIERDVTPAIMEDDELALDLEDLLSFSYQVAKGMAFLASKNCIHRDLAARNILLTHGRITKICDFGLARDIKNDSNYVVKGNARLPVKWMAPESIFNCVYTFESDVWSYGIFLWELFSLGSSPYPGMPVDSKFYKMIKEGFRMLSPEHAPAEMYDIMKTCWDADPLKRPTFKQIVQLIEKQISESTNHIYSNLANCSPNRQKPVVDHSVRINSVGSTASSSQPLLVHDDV
Procedure: (§1) Compounds were tested in vitro as follows.
(§2) Recombinant protein kinases, which were expressed as fusion proteins in SF9 insect cells or E. coli, were used for all in vitro assays. The purity and identity of each kinase was checked by SDS-PAGE/silver staining and by western blot analysis with specific antibodies.
(§3) All kinase assays except for p38a (see below) were performed in 96-well micro-titre plates. The assay components included assay buffer, ATP, test compound, enzyme and substrate.
(§4) The assay for all enzymes (except for the PKC see below, contained 60 mM HEPES-NaOH, pH 7.5, 3 mM MgCl2, 3 mM MnCl2, 3 μM Na-orthovanadate, 1 mM […], 0.1 μM [γ-^33P]-ATP (approx. 5×10^5 cpm per well).
(§5) The reaction cocktails were incubated at 30° C. for 80 minutes. The reaction was stopped with 50 μl of 2% (v/v) H3PO4, plates were aspirated and washed twice with 200 μl of H2O or 0.9% (w/v) NaCl. Incorporation of ^33Pi was determined with a microplate scintillation counter.
(§6) All data is presented as residual activity, which is the activity of the enzyme in the presence of the stipulated concentration of inhibitor or compound. 100% activity is the maximum activity of the enzyme in the absence of any inhibitor or compound.
(§7) In all experiments the Z′ value was calculated according to Zhang et al to (J-H Zhang, T. D. Y Chung, K. R. Oldenburg (1999) Journal of Biomolecular Screening 4:67-73) using the standard deviations and mean values of the positive and negative controls. Z′=1−(3*Stdevneg+3*Stdevpos)/(Meanpos−Meanneg)
(§8) Only data where the Z′ value was >0.5 was used.

[9] = molecular target: EGF-R (Homo sapiens, UniProt P00533); experiment: EGF-R kinase assay, 33P-ATP incorporation, residual activity; format: biochemical; details: tested at 25 micromolar
Procedure: as §1, §2, §3, §4, §5, §6, §7, §8

[10] = molecular target: T2, TIE2 (Homo sapiens, UniProt Q02763); experiment: TIE2 kinase assay, 33P-ATP incorporation, residual activity; format: biochemical
T2 construct: made in house
T2 sequence (Q02763 23-1124, species assumed): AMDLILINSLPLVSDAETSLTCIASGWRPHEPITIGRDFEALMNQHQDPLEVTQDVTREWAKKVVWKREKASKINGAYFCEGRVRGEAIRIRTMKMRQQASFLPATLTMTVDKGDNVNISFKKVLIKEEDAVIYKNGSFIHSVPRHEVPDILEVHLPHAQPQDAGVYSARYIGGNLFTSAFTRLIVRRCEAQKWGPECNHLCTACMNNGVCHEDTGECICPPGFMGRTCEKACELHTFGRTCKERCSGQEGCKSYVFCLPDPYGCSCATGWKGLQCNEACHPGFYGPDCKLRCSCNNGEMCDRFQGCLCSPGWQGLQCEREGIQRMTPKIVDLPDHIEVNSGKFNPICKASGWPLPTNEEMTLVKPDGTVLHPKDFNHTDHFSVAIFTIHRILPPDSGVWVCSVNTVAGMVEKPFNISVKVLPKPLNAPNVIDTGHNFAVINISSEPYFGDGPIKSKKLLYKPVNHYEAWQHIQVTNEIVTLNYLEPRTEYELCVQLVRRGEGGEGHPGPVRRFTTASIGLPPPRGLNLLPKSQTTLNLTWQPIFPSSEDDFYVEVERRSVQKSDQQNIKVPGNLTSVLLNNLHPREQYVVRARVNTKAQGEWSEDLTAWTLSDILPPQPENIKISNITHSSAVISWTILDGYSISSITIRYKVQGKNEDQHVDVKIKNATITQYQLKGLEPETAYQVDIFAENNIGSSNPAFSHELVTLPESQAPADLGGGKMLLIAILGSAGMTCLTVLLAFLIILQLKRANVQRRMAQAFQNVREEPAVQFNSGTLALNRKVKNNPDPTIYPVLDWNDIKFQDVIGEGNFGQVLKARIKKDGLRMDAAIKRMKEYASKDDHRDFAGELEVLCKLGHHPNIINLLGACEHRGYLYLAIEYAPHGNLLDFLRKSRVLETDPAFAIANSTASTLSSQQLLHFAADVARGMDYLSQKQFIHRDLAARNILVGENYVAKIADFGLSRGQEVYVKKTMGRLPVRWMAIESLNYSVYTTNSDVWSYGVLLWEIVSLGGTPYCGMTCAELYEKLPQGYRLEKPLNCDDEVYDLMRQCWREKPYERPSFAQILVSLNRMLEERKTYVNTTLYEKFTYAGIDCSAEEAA
Procedure: as §1, §2, §3, §4, §5, §6, §7, §8

[11] = molecular target: T3, PDGF-Ralpha (Homo sapiens, UniProt P16234); experiment: PDGF-Ralpha kinase assay, 33P-ATP incorporation, residual activity; format: biochemical; details: tested at 25 micromolar
T3 construct: made in house
Procedure: as §1, §2, §3, §4, §5, §6, §7, §8

[12] = molecular target: CDK2/CycA (Homo sapiens, UniProt P24941); experiment: CDK2/CycA kinase assay, 33P-ATP incorporation, residual activity; format: biochemical; details: tested at 25 micromolar
Procedure: as §1, §2, §3, §4, §5, §6, §7, §8

[13] = molecular target: T4, MET (Homo sapiens, UniProt P08581); experiment: MET kinase assay, 33P-ATP incorporation, residual activity; format: biochemical; set-up: key: % residual kinase activity (100% = no inhibitor); details: tested at 25 micromolar
T4 construct: made in house
T4 sequence (P08581 25-1390): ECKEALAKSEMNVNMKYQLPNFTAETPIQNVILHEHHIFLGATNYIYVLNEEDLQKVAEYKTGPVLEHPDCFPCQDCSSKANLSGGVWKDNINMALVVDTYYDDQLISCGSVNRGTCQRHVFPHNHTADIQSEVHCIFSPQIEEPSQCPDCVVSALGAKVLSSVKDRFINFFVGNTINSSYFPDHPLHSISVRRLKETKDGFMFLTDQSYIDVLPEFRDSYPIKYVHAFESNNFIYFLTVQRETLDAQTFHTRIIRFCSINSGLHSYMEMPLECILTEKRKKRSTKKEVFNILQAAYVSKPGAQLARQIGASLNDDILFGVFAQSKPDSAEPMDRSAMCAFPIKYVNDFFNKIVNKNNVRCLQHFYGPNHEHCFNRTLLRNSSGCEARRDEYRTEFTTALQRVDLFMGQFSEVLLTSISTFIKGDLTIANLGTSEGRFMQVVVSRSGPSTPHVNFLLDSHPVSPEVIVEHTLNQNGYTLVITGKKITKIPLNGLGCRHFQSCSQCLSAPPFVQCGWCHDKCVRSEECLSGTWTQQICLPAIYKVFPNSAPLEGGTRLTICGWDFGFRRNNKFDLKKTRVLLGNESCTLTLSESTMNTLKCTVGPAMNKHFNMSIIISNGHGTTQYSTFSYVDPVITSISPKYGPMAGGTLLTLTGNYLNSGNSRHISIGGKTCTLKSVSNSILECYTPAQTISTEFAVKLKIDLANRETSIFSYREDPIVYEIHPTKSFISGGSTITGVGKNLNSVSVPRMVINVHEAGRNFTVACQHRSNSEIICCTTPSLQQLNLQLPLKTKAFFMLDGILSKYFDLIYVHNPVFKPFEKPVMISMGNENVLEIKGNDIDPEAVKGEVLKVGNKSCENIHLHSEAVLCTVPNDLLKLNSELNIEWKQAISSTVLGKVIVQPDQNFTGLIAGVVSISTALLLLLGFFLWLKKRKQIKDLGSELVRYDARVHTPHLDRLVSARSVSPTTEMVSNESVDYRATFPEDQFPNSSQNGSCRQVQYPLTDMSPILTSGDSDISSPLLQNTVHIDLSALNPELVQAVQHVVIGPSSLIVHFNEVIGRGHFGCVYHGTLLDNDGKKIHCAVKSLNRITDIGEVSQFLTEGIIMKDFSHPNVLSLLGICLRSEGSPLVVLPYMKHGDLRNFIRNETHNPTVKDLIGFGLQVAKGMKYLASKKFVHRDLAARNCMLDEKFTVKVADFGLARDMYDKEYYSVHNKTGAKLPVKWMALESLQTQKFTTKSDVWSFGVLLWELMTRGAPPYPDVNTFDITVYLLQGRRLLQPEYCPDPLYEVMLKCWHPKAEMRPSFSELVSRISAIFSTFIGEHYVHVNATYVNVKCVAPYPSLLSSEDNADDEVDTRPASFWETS
Procedure: as §1, §2, §3, §4, §5, §6, §7, §8

[14] = molecular target: T5, VEGF-R2 (Homo sapiens, UniProt P35968); experiment: VEGF-R2 kinase assay, 33P-ATP incorporation, residual activity; format: biochemical; set-up: key: % residual kinase activity (100% = no inhibitor)
T5 construct: made in house
T5 sequence (P35968 20-1356): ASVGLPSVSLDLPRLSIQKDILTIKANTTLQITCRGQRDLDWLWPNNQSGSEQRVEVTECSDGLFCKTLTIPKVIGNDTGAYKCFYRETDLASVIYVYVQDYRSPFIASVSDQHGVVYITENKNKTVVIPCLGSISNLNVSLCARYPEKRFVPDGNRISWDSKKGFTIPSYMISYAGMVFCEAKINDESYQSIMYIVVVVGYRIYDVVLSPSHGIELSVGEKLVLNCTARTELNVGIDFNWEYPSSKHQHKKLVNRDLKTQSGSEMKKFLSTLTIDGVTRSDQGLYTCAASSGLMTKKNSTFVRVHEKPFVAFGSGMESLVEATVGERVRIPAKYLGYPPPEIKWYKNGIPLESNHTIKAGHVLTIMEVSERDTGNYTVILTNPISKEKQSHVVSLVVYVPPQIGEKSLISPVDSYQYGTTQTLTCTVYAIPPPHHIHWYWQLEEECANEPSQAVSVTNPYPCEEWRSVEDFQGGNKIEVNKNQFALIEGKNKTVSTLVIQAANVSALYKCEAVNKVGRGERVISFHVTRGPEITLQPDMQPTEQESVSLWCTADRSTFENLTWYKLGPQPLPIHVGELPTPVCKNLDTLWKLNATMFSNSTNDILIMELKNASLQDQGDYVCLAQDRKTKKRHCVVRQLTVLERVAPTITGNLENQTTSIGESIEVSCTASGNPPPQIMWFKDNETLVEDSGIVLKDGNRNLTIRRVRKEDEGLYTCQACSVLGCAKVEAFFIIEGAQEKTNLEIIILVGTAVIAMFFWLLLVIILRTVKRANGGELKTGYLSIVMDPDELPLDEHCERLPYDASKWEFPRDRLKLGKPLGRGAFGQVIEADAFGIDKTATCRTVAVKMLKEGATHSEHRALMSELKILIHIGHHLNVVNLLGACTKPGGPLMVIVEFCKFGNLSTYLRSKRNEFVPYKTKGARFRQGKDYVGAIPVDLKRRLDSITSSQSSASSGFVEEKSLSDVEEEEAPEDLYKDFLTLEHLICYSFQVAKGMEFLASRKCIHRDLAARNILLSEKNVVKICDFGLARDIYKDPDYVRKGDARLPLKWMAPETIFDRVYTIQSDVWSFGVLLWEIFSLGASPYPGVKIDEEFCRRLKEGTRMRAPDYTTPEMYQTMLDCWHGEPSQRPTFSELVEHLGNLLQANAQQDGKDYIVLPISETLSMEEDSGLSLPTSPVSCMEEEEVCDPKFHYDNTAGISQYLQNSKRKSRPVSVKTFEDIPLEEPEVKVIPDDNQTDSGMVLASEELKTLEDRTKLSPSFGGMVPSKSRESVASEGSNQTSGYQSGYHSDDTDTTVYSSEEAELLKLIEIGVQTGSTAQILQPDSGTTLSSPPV
Procedure: as §1, §2, §3, §4, §5, §6, §7, §8

[15] = molecular target: ABL (Homo sapiens, UniProt P00519); experiment: ABL kinase assay, 33P-ATP incorporation, residual activity; format: biochemical; details: tested at 25 micromolar
Procedure: as §1, §2, §3, §4, §5, §6, §7, §8

[16] = molecular target: PKC-beta1 (Homo sapiens, UniProt P05771); experiment: PKC-beta1 kinase assay, 33P-ATP incorporation, residual activity; format: biochemical; details: tested at 25 micromolar
Procedure: as §1, §2, §3
The assay for the PKCs contained 60 mM HEPES-NaOH, pH 7.5, 1 mM EDTA, 1.25 mM EGTA, 5 mM MgCl2, 1.32 mM CaCl2, 5 μg/ml Phosphatidylserine, 1 μg/ml 1.2 Dioleyl-glycerol, 1.2 mM DTT, 50 μg/ml PEG20000, 0.1 μM [γ-^33P]-ATP (approx. 5×10^5 cpm per well).
as §5, §6, §7, §8

[17] = molecular target: mitogen-activated protein kinase p38α (Homo sapiens, UniProt Q16539); experiment: p38α assay, NanoCarrier 2080 format, fluorescence polarization (2D-FIDA anisotropy); format: biochemical
Chain of mitogen-activated protein kinase p38α (Q16539 whole entry, species assumed): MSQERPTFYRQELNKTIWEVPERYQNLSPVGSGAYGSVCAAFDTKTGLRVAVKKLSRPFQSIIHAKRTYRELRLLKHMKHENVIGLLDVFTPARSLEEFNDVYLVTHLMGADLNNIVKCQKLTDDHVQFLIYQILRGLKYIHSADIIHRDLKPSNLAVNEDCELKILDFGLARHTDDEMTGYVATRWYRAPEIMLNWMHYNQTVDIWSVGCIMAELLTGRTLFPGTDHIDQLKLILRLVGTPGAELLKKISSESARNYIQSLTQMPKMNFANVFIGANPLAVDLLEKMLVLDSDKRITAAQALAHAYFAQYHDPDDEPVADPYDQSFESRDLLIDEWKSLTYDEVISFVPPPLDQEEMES
Procedure: as §1, §2
The mitogen-activated protein kinase p38α assays were done in a proprietary microassay NanoCarrier™ 2080 format. In these assays phosphorylation was detected by a phospho-substrate specific monoclonal antibody in an indirect competition assay. The degree of binding of the antibody to the phospho-substrate was measured by fluorescence polarization using 2D-FIDA anisotrophy. In these experiments the final concentration of the enzyme was 1.6 nM and the substrate was 2 μM.
as §6, §7, §8

[18] = molecular target: GSK3β (Homo sapiens, UniProt P49841); details: inhibitor concentration 1 μM; cited from earlier work
[19] = molecular target: MAPKAPK1b (Homo sapiens, UniProt P51812); details: inhibitor concentration 1 μM; cited from earlier work
[20] = molecular target: PKCα (Homo sapiens, UniProt P17252); details: inhibitor concentration 1 μM; cited from earlier work
[21] = compounds marked !: tested at 2.5 micromolar

| c-Kit ([8]; tested at 25 micromolar) | EGF-R [9] | Tie2 ([10]; tested at 25 micromolar) | PDGFalpha [11] | CDK2 [12] | MET [13] | VEGF ([14]; tested at 25 micromolar) | ABL [15] | PKC [16] | Compound | further results |
| --- | --- | --- | --- | --- | --- | --- | --- | --- | --- | --- |
| – | – | – | – | – | – | – | – | – | O=S(=O)(c1cccc2cnccc12)N1CCCNCC1 [HA1077] | residual activity MSK1 ([1]; inhibitor concentration 20 μM): 19%; residual activity S6K1 ([2]; inhibitor concentration 20 μM): 32%; residual activity PRK2 [3]: 15% |
| – | – | – | – | – | – | – | – | – | CC(C)(C)n1nc(-c2ccc(Cl)cc2)c2c(N)ncnc21 [PP2] | residual activity CDK2 [4]: 3%; residual activity CK1 [5]: 6%; residual activity SAPK2a [6]: 21%; residual activity MKK1 [7]: 55% |
| 52 | 69 | 42 | 106 | 70 | 88 | 58 | 109 | 80 | Cc1cccc(CSc2nc3cc(C(N)=O)ccc3n2C[C@H]2O[C@@H](n3cnc4c(N)ncnc43)[C@H](O)[C@@H]2O)c1 [compound 100] | – |
| 53 | 94 | 71 | 127 | 270 | 78 | 101 | 115 | 142 | CCCCCCCCSc1nc2cc(C(N)=O)ccc2n1C[C@H]1O[C@@H](n2nnc(C(N)=O)c2-c2ccccc2)[C@H](O)[C@@H]1O [compound 146] | – |
| 12 | 23 | 1 | 38 | 25 | 46 | 10 | 41 | 26 | Nc1ncnc2c1ncn2[C@@H]1O[C@H](CN2C(=O)C(Cc3ccccc3)N(Cc3ccccc3[N+](=O)[O-])C2=O)[C@@H](O)[C@H]1O (some centres unmarked) [compound 212] | – |
| 109 | 22 | 0 | 17 | 40 | 31 | 11 | 24 | 10 | Nc1ncnc2c1ncn2[C@@H]1O[C@H](CN2C(=O)C(Cc3ccccc3)N(Cc3cccn3S(=O)(=O)c3ccccc3)C2=O)[C@@H](O)[C@H]1O (some centres unmarked) [compound 223] | – |
| 6 | 15 | −1 | 28 | 26 | 27 | 8 | 30 | 13 | CCn1c2ccccc2c2ccc(CN3C(=O)N(C[C@H]4O[C@@H](n5nnc(C(N)=O)c5-c5ccccc5)[C@H](O)[C@@H]4O)C(=O)C3Cc3ccccc3)cc21 (some centres unmarked) [compound 246] | – |
| 17 | 66 | 12 | 85 | 20 | 72 | 31 | 6 | 80 | CCCCCCCCOc1ccc(-c2nc3cc(C(N)=O)ccc3n2C[C@H]2O[C@@H](n3nnc(C(N)=O)c3-c3ccccc3)[C@H](O)[C@@H]2O)cc1 [compound 279] | – |
| 40 | 58 | 41 | 82 | 67 | 87 | 54 | 74 | 65 | CCCc1c(C(N)=O)nnn1[C@@H]1O[C@H](CNCc2nc3cc(C(N)=O)ccc3n2-c2ccc(-c3ccccc3)cc2)[C@@H](O)[C@H]1O [compound 345] | – |
| 92 | 96 | 91 | 113 | 28 | 103 | 96 | 107 | 104 | CCCc1c(C(N)=O)nnn1[C@@H]1O[C@H](Cn2c(-c3ccc(F)c(C(F)(F)F)c3)nc3cc(C(N)=O)ccc32)[C@@H](O)[C@H]1O [compound 456] | – |
| 13 | 27 | 3 | 46 | 30 | 46 | 18 | 49 | 50 | Nc1ncnc2c1ncn2[C@@H]1O[C@H](CN2C(=O)C(Cc3ccccc3)N(Cc3ccccc3Sc3ccc(Cl)cc3)C2=O)[C@@H](O)[C@H]1O (some centres unmarked) [compound 604] | P38 ([17]; tested at 25 micromolar): 100 |
| 18 | 20 | 5 | 56 | 26 | 54 | 14 | 55 | 27 | Nc1ncnc2c1ncn2[C@@H]1O[C@H](CN2C(=O)C(Cc3ccccc3)N(Cc3cccs3)C2=O)[C@@H](O)[C@H]1O (some centres unmarked) [compound 605] | P38 ([17]; tested at 25 micromolar): 100 |
| – | – | – | – | – | – | – | – | – | NC(=O)c1nnn([C@@H]2O[C@H](Cn3c(-c4ccc(OCc5ccccc5)cc4)nc4cc(Cl)c(Cl)cc43)[C@@H](O)[C@H]2O)c1-c1ccccc1 [compound 668] | c-Kit [8, 21]: 16; Tie2 [10, 21]: 1 |
| – | – | – | – | – | – | – | – | – | NC(=O)c1nnn([C@@H]2O[C@H](Cn3c(-c4ccc(OCc5ccccc5)cc4)nc4cc(Cl)c(Cl)cc43)[C@@H](O)[C@H]2O)c1-c1ccc(Cl)cc1 [compound 669] | c-Kit [8, 21]: 11; Tie2 [10, 21]: 1; VEGF [14, 21]: 34; P38 [17, 21]: 97 |
| – | – | – | – | – | – | – | – | – | COc1ccc(-c2c(C(N)=O)nnn2[C@@H]2O[C@H](Cn3c(-c4ccc(OCc5ccccc5)cc4)nc4cc(Cl)c(Cl)cc43)[C@@H](O)[C@H]2O)cc1 [compound 670] | c-Kit [8, 21]: 9; Tie2 [10, 21]: 1; VEGF [14, 21]: 23 |
| – | – | – | – | – | – | – | – | – | CCCCCCCCOc1ccc(-c2nc3c(NC)ncnc3n2C[C@H]2O[C@@H](n3nnc(C(N)=O)c3-c3ccccc3)[C@H](O)[C@@H]2O)cc1 [compound 725] | c-Kit [8, 21]: 6; Tie2 [10, 21]: 10 |
| 38 | 88 | 72 | 96 | 119 | 88 | 44 | 96 | 96 | Nc1ncnc2c1ncn2[C@@H]1O[C@H](Cn2c(-c3ccc(OCc4ccccc4)cc3)nc3ccccc32)[C@@H](O)[C@H]1O [compound 912] | P38 ([17]; tested at 25 micromolar): 70 |
| – | – | – | – | – | – | – | – | – | Ro-31-8220 | residual activity MSK1 ([1]; inhibitor concentration 1 μM): 2%; residual activity S6K1 ([2]; inhibitor concentration 1 μM): 6%; residual activity GSK3β [18]: 5%; residual activity MAPKAPK1b [19]: 2%; residual activity PKCα [20]: 3% |
